Article PMC2859624 (Progress in neuro-psychopharmacology & biological psychiatry, 2010)
Read-outs that look alike come from different tables or passages of the source.

Legend:
male Wistar rats [1] = assay: Elevated plus maze; assay type: in vivo, rat; details: for effect on percentage of time on open arms: post hoc p 0.032
male Wistar rats [2] = assay: Morris water maze; assay type: in vivo, rat; details: for platform zone entries during the probe trial: after five-day treatment at 30 mg/kg i.p.; for overall influence on water maze learning parameters (acquisition): 5 days
[3] = biological target: human GABAA receptor containing α4 subunit (BZ site); details: read-out: Ki α4; second independent set of experiments
α1β3γ2 GABAA receptors [4] = biological target: T1, α1β3γ2 GABAA receptors (Rattus norvegicus, UniProt P18508+P62813); details: 100 nM, EC3 GABA, mean ± SEM; ref Rivas et al., 2009; cited from earlier work
α2β3γ2 GABAA receptors [5] = biological target: T2, α2β3γ2 GABAA receptors (Rattus norvegicus, UniProt P18508+P23576); details: 100 nM, EC3 GABA, mean ± SEM; ref Rivas et al., 2009; cited from earlier work
α3β3γ2 GABAA receptors [6] = biological target: T3, α3β3γ2 GABAA receptors (Rattus norvegicus, UniProt P18508+P20236); details: 100 nM, EC3 GABA, mean ± SEM; ref Rivas et al., 2009; cited from earlier work
α5β3γ2 GABAA receptors [7] = biological target: T4, α5β3γ2 GABAA receptors (Rattus norvegicus, UniProt P18508+P19969); details: 100 nM, EC3 GABA, mean ± SEM; ref Rivas et al., 2009; cited from earlier work
male Wistar rats [8] = assay: Spontaneous locomotor activity; details: for effect on total distance travelled during 45 min: 20 min before test, vs solvent; for dose inducing a hypolocomotor effect in the SLA: i.p.; for effect on total distance (locomotion), 30 min: Dunnett's test
α1β3γ2 GABAA receptors [9] = biological target: T1, α1β3γ2 GABAA receptors; assay type: cell-based
α2β3γ2 GABAA receptors [10] = biological target: T2, α2β3γ2 GABAA receptors; assay type: cell-based; details: for % of control current, α2β3γ2: 100 nM, EC3 GABA, mean ± SEM, 0.1 µM
α3β3γ2 GABAA receptors [11] = biological target: T3, α3β3γ2 GABAA receptors; assay type: cell-based; details: for remaining activity at 0.1 µM: read-out: % of control current, α3β3γ2, 100 nM, EC3 GABA, mean ± SEM
α5β3γ2 GABAA receptors [12] = biological target: T4, α5β3γ2 GABAA receptors; assay type: cell-based; details: for % of control current, α5β3γ2: 100 nM, EC3 GABA, mean ± SEM
[13] = biological target: human GABAA receptor containing α6 subunit (BZ site) (Homo sapiens, UniProt P18507+Q16445); assay: Competition binding assay with [3H]flunitrazepam; details: read-out: Ki α6, transfected HEK 293T, duplicate
male Wistar rats [14] = details: ref Savić et al., 2008b, cited from earlier work
male Wistar rats [15] = details: 30 mg/kg; ref Savić et al., 2008b; cited from earlier work
[16] = biological target: human GABAA receptor containing α5 subunit (BZ site) (Homo sapiens, UniProt P18507+P31644); assay: Competition binding assay with [3H]flunitrazepam
[17] = biological target: human GABAA receptor containing α3 subunit (BZ site) (Homo sapiens, UniProt P18507+P34903); assay: Competition binding assay with [3H]flunitrazepam; details: read-out: Ki α3, transfected HEK 293T, duplicate
[18] = read-out: % of control current, α1β3γ2
[19] = zolpidem 0.5 mg/kg during acquisition, ±SEM
[20] = zolpidem 1.0 mg/kg during acquisition, ±SEM
[21] = zolpidem 2.0 mg/kg during acquisition, ±SEM
[22] = zolpidem 2.0 mg/kg during acquisition, ±SEM, P<0.05 vs ZOL 0.5

C#Cc1ccc2c(c1)C(c1ccccn1)=NCc1c(C(=O)OCC)ncn1-2 [SH-053-2'N, 8-ethynyl-6-(2’-pyrydine)-4H-2,5,10b-triaza-benzo[e]azulene-3-carboxylic acid ethyl ester]
effect on percentage of time on open arms (male Wistar rats [1]; 30 mg/kg i.p.): effective treatments | effect on total arm entries (male Wistar rats [1]; 10, 20 and 30 mg/kg i.p., Dunnett's test vs solvent): significant effect of the two higher doses | effect on distance travelled in the open arms (male Wistar rats [1]; 10, 20 and 30 mg/kg i.p., overall treatment effect): no significant effect of treatment | effect on percentage of open arm entries (male Wistar rats [1]; 10, 20 and 30 mg/kg i.p., post hoc test): neither of the single doses was significant on its own | latency to find the platform, single day (male Wistar rats [2]; 30 mg/kg i.p., vs control or SH-053-S-CH3-2'F 30 mg/kg): significantly longer search time on the fourth day | platform zone entries during the probe trial (male Wistar rats [2]): lack of incapacitating consequences | Ki [3]: > 5 µM | % of control current, α1β3γ2 (α1β3γ2 GABAA receptors [4]): 113 ± 2% | % of control current, α2β3γ2 (α2β3γ2 GABAA receptors [5]): 165 ± 2% | % of control current, α3β3γ2 (α3β3γ2 GABAA receptors [6]): 149 ± 3% | % of control current, α5β3γ2 (α5β3γ2 GABAA receptors [7]): 130 ± 3% | effect on total distance travelled during 45 min (male Wistar rats [8]; 30 mg/kg i.p.): activity-depressing effect of all three treatments was significant | dose inducing a hypolocomotor effect in the SLA (male Wistar rats [8]): 30 mg/kg

C#Cc1ccc2c(c1)C(c1ccccc1F)=NC(C)c1c(C(=O)OCC)ncn1-2 (centres unmarked) [SH-053-R-CH3-2'F, 8-ethynyl-6-(2-fluorophenyl)-4-methyl-4H-2,5,10b-triaza-benzo[e]azulene-3-carboxylic acid ethyl ester]
remaining activity at 0.1 µM (α1β3γ2 GABAA receptors [9]; [18]): 111 ± 2% | % of control current, α2β3γ2 (α2β3γ2 GABAA receptors [10]): 124 ± 9% | % of control current, α3β3γ2 (α3β3γ2 GABAA receptors [11]; 100 nM, EC3 GABA, mean ± SEM, 0.1 µM): 125 ± 8% | % of control current, α5β3γ2 (α5β3γ2 GABAA receptors [12]; 0.1 µM): 183 ± 7% | general activity- or anxiety-related parameters (male Wistar rats [1]; doses up to 30 mg/kg i.p.): completely devoid of changes | platform zone entries during the probe trial (male Wistar rats [2]): lack of incapacitating consequences | effect on total distance (locomotion), 30 min (male Wistar rats [8]; 30 mg/kg i.p.): significantly depressed locomotion | effect on distance travelled in 5-min bins (male Wistar rats [8]; 10, 20 and 30 mg/kg i.p., 6 intervals): did not significantly decrease locomotion | effect on central and peripheral zone locomotion (male Wistar rats [8]; 20 and 30 mg/kg i.p.): decreased central, but not peripheral locomotion

C#Cc1ccc2c(c1)C(c1ccccc1F)=NC(C)c1c(C(=O)OCC)ncn1-2 (centres unmarked) [SH-053-S-CH3-2'F, 8-ethynyl-6-(2-fluorophenyl)-4-methyl-4H-2,5,10b-triaza-benzo[e]azulene-3-carboxylic acid ethyl ester]
Ki [13]: > 5 µM | % of control current, α1β3γ2 (α1β3γ2 GABAA receptors [9]; 100 nM, EC3 GABA, mean ± SEM): non-significant changes relative to control current | remaining activity at 1 µM (α1β3γ2 GABAA receptors [9]; [18]): 164 ± 6% | % of control current, α2β3γ2 (α2β3γ2 GABAA receptors [10]): 169 ± 5% | remaining activity at 0.1 µM (α3β3γ2 GABAA receptors [11]): 138 ± 5% | % of control current, α5β3γ2 (α5β3γ2 GABAA receptors [12]; 0.1 µM): 218 ± 4% | platform zone entries during the probe trial (male Wistar rats [2]): lack of incapacitating consequences | effect on locomotor activity (male Wistar rats [14]; 30 mg/kg): significant decrease of locomotor activity | dose inducing a hypolocomotor effect in the SLA (male Wistar rats [14]): 30 mg/kg | effect on percentage of open arm entries (male Wistar rats [15]): significant effect | effect on percentage of time on open arms (male Wistar rats [15]): significant effect | effects on general activity-related parameters (male Wistar rats [15]): without concomitant effects

Cc1ccc(-c2nc3ccc(C)cn3c2CC(=O)N(C)C)cc1 [zolpidem]
Ki ([16]; read-out: Ki α5, [3H]flunitrazepam, transfected HEK 293T, duplicate): > 10 µM | remaining activity at 0.1 µM (α1β3γ2 GABAA receptors [9]; [18]): 180 ± 14% | % of control current, α5β3γ2 (α5β3γ2 GABAA receptors [12]): non-significant changes relative to control current | overall influence on water maze learning parameters (acquisition) (male Wistar rats [2]; 0.5 mg/kg i.p. daily, vs control): different related to control | percent of distance travelled in the NE quadrant that was in the target region (male Wistar rats [2]; 2 mg/kg i.p., day 5 of acquisition, chance 40%): 40.5% | overall influence on water maze learning parameters (acquisition) (male Wistar rats [2]; 1 and 2 mg/kg i.p. daily, vs 0.5 mg/kg): behaviorally impaired related to 0.5 mg/kg zolpidem | Peripheral ring distance, probe trial (male Wistar rats [2]; [19]): 4.16±0.61 m | Peripheral ring time, probe trial (male Wistar rats [2]; [19]): 33.48 ± 3.68 s | Platform distance, probe trial (male Wistar rats [2]; [19]): 0.097±0.031 m | Platform number of entries, probe trial (male Wistar rats [2]; [19]): 1.25±0.41 | Platform quadrant (NE) distance, probe trial (male Wistar rats [2]; [19]): 2.41±0.29 m | Platform quadrant (NE) time, probe trial (male Wistar rats [2]; [19]): 11.86 ± 1.44 s | Platform ring distance, probe trial (male Wistar rats [2]; [19]): 5.27±0.68 m | Platform ring time, probe trial (male Wistar rats [2]; [19]): 21.46 ± 3.05 s | Target region distance, probe trial (male Wistar rats [2]; [19]): 1.51±0.27 m | Target region time, probe trial (male Wistar rats [2]; [19]): 7.26 ± 1.36 s | Peripheral ring distance, probe trial (male Wistar rats [2]; [20]): 6.09±0.89 m | Peripheral ring time, probe trial (male Wistar rats [2]; [20]): 39.86 ± 1.67 s | Platform distance, probe trial (male Wistar rats [2]; [20]): 0.047±0.028 m | Platform number of entries, probe trial (male Wistar rats [2]; [20]): 0.38±0.18 | Platform quadrant (NE) distance, probe trial (male Wistar rats [2]; [20]): 2.18±0.51 m | Platform ring distance, probe trial (male Wistar rats [2]; [20]): 4.48±0.31 m | Platform ring time, probe trial (male Wistar rats [2]; [20]): 17.31 ± 1.38 s | Target region distance, probe trial (male Wistar rats [2]; [20]): 1.12±0.14 m | Target region time, probe trial (male Wistar rats [2]; zolpidem 1.0 mg/kg during acquisition, ±SEM, P<0.05 vs ZOL 0.5): 4.03 ± 0.52 s | Peripheral ring time, probe trial (male Wistar rats [2]; [21]): 42.80 ± 3.35 s | Platform distance, probe trial (male Wistar rats [2]; [21]): 0.053±0.023 m | Platform number of entries, probe trial (male Wistar rats [2]; [21]): 0.50±0.19 | Platform quadrant (NE) distance, probe trial (male Wistar rats [2]; [21]): 2.22±0.44 m | Platform ring distance, probe trial (male Wistar rats [2]; [21]): 4.00±0.65 m | Platform ring time, probe trial (male Wistar rats [2]; [21]): 14.50 ± 2.60 s | Target region distance, probe trial (male Wistar rats [2]; [21]): 0.99±0.22 m | Peripheral ring distance, probe trial (male Wistar rats [2]; [22]): 7.85±0.82 m | Target region time, probe trial (male Wistar rats [2]; [22]): 3.51 ± 0.76 s

CN1C(=O)CN=C(c2ccccc2)c2cc(Cl)ccc21 [diazepam]
remaining activity at 0.1 µM (α1β3γ2 GABAA receptors [9]; [18]): 246 ± 16% | remaining activity at 0.1 µM (α2β3γ2 GABAA receptors [10]; read-out: % of control current, α2β3γ2, 100 nM, EC3 GABA, mean ± SEM): 400 ± 22% | remaining activity at 0.1 µM (α3β3γ2 GABAA receptors [11]): 461 ± 34% | remaining activity at 0.1 µM (α5β3γ2 GABAA receptors [12]; read-out: % of control current, α5β3γ2, 100 nM, EC3 GABA, mean ± SEM): 322 ± 7% | effect on percentage of time on open arms (male Wistar rats [1]; 2.0 mg/kg i.p.): effective treatments | effect on total distance travelled during 45 min (male Wistar rats [8]; 1.25 mg/kg i.p.): activity-depressing effect of all three treatments was significant | effect on distance travelled in 5-min bins (male Wistar rats [8]; 2 mg/kg i.p.): induced overt sedation during the first 10 min of recording | effect on total distance (locomotion), 30 min (male Wistar rats [8]; 2 mg/kg i.p.): significantly depressed locomotion

C#Cc1ccc2c(c1)C(c1ccccc1F)=NCc1c(C(=O)OCC)ncn1-2 [JY-XHe-053, 8-ethynyl-6-(2-fluorophenyl)-4H-2,5,10b-triaza-benzo[e]azulene-3-carboxylic acid ethyl ester]
Ki [17]: 0.0349 µM | binding selectivity for GABAA receptors containing the α5 subunit ([16]; from Ki values): approximately 18 fold | general activity and anxiety-related parameters (male Wistar rats [1]; 2.5-40 mg/kg i.p.): devoid of significant behavioral activity | % of control current, α1β3γ2 (α1β3γ2 GABAA receptors [4]): 169% | % of control current, α2β3γ2 (α2β3γ2 GABAA receptors [5]): 307 ± 14% | % of control current, α3β3γ2 (α3β3γ2 GABAA receptors [6]): 345 ± 26% | % of control current, α5β3γ2 (α5β3γ2 GABAA receptors [7]): 220% | effect on central zone activity (male Wistar rats [8]; 2.5-40 mg/kg i.p., 30 min): not discernible | effect on peripheral zone distance (male Wistar rats [8]; 2.5-40 mg/kg i.p., 30 min, vs control): three higher doses of JYXHe-053 were significantly different from control | dose inducing a hypolocomotor effect in the SLA (male Wistar rats [8]): ≥ 10 mg/kg
